Read-outs that look alike come from different tables or passages of the source.
Tests used:
[1] = Pharmacokinetic assessment of X842 in dogs (IV, single oral, repeated oral); format: in vivo; conditions: beagle, dog, plasma, analyte as labelled; for half-life at 1 day: read-out: t1/2 Day 1 (converted); for half-life at 7 day: read-out: t1/2 Day 7 (converted); for half-life: read-out: t1/2 (converted)
Procedure: (§1) Pharmacokinetic assessments were conducted by Shanghai Medicilon Inc. Using C18 solid-phase extraction (Shimadzu UFLC-20A, ACE 3, C18, 3.0 µm, 150 × 4.6 mm; Shimadzu, Japan) with the following conditions: mobile phase A: 1 M ammonium acetate in water, mobile phase B: 100% acetonitrile; gradient 0–5 min: 100% A, 5–30 min: 85% A, 35–63 min: 75% A, 63–65 min: 55% A, 65–70 min: 0% A, 72–87 min: 100% A; flow rate 0.7 mL/min; column temperature 30 °C ([Weidof and Covey, 1992]). […] Bioavailability was calculated as F (%) = (Doseiv × AUCpo(0–24h)) ÷ (Dosepo × AUCiv (0–24h)) × 100%, where “po” represents oral administration and “iv” represents intravenous administration.
Male and female Beagle dogs weighing around 9 kg were arbitrarily selected for testing. Food and water were provided ad libitum, except during overnight fasting (15–16 h) prior to oral drug administration ([Adebowale et al., 2002]). X842 were dissolved in the PEG400/ethanol/Solutol/water mixture (40:10:5:45% v/v) and methane sulfonic acid was used to adjust to pH 3, yielding solutions with concentrations of 0.3 mg/mL, 1.2 mg/mL, and 4.8 mg/mL for oral administration. There were four rounds of drug administration. One week was required between the rounds of testing according to the conditions for of animal welfare maintenance. For IV injection, a drug solution with a concentration of 0.3 mg/mL was prepared and filtered through a 0.22-μm filter. Blood samples were collected via the jugular vein using the same procedures as were used for the rat experiments. Following centrifugation, the plasma was transferred to clean tubes and stored at −80 °C until further analysis. All animals were euthanized by phenobarbital injection after the final blood sample collection. Pharmacokinetic assessments were conducted as described in 2.2.1.

[2] = Pharmacokinetic assessment of X842 in rats (IV, single oral, repeated oral); format: in vivo, Sprague-Dawley rats; conditions: Sprague-Dawley, rat, plasma; for AUC(0-t): read-out: AUC(0–24h); for half-life: read-out: t1/2 (converted)
Procedure: Male and female Sprague-Dawley rats weighing approximately 150 g were housed individually with a 12-h light/dark cycle. Food and water were provided ad libitum, except during overnight fasting (10–16 h) prior to oral drug administration, as described previously ([Kotegawa et al., 1998]; [Kotegawa et al., 2002]). To investigate the absorption kinetics of X842 (prodrug) and linaprazan (metabolite, parent drug) in rats after oral and intravenous administration of X842, X842 were dissolved in 5% Solutol HS15/45% ethanol/10% PEG400/40% saline, and methane sulfonic acid was used to adjust to pH 3, yielding solutions with concentrations of 0.6 mg/mL, 2.4 mg/mL, and 9.6 mg/mL for oral administration. For intravenous (IV) injection, a drug solution (0.6 mg/mL) was prepared and filtered through a 0.22-μm filter. Blood samples were collected via the jugular vein of conscious rats (without intubation, narcotics, or antibiotics) prior to dosing and at 0.083, 0.25, 0.5, 1, 2, 4, 6, 8, and 24 h after dosing. Blood samples were placed into tubes containing sodium heparin and centrifuged at 3,500 rpm for 10 min at 4 °C. Following centrifugation, the plasma was transferred to clean tubes and stored at −80 °C until further analysis. All animals were euthanized by carbon dioxide (CO2) inhalation after the final blood sample collection.
as §1

[3] = 1.2 mg/kg, female dogs, repeat oral X842, Day 1
[4] = 1.2 mg/kg, female dogs, repeat oral X842, Day 7
[5] = female dogs, intravenous X842 0.3 mg/kg
[6] = female dogs, single oral X842 0.3 mg/kg
[7] = female dogs, single oral X842 1.2 mg/kg
[8] = female dogs, single oral X842 4.8 mg/kg
[9] = male dogs, intravenous X842 0.3 mg/kg
[10] = male dogs, single oral X842 0.3 mg/kg
[11] = male dogs, single oral X842 1.2 mg/kg
[12] = male dogs, single oral X842 4.8 mg/kg
[13] = female, iv, 0.6 mg/kg, female rats, intravenous X842, plasma analyte as labelled
[14] = female, po, 0.6 mg/kg, female rats, single oral X842 0.6 mg/kg, analyte as labelled
[15] = female, po, 2.4 mg/kg, female rats, single oral X842 2.4 mg/kg, analyte as labelled
[16] = female, po, 9.6 mg/kg, female rats, single oral X842 9.6 mg/kg, analyte as labelled
[17] = male, iv, 0.6 mg/kg, male rats, intravenous X842, plasma analyte as labelled
[18] = male, po, 0.6 mg/kg, male rats, single oral X842 0.6 mg/kg, analyte as labelled
[19] = male, po, 2.4 mg/kg, male rats, single oral X842 2.4 mg/kg, analyte as labelled
[20] = male, po, 9.6 mg/kg, male rats, single oral X842 9.6 mg/kg, analyte as labelled

Cmax at 1 day [1, 3]: 0.0672 ± 0.0047 µg/mL
half-life at 1 day [1, 3]: 3.2 ± 0.42 h
Cmax at 7 day [1, 4]: 0.065 ± 0.0047 µg/mL
half-life at 7 day [1, 4]: 5.1 ± 1.1 h
half-life at 1 day ([1]; 1.2 mg/kg, male dogs, 7 days of repeat oral X842, Day 1): 2.8 ± 0.2 h
half-life at 7 day ([1]; 1.2 mg/kg, male dogs, 7 days of repeat oral X842, Day 7): 3.8 ± 0.4 h
Cmax at 1 day ([1]; 1.2 mg/kg, male dogs, repeat oral X842, Day 1): 0.0828 ± 0.0565 µg/mL
Cmax at 7 day ([1]; 1.2 mg/kg, male dogs, repeat oral X842, Day 7): 0.0675 ± 0.0239 µg/mL
Cmax [1, 5]: 0.0306 ± 0.0062 µg/mL
half-life [1, 5]: 1.6 ± 0.2 h
Cmax [1, 6]: 0.0104 ± 0.0014 µg/mL
half-life [1, 6]: 2.1 ± 0.4 h
Cmax [1, 7]: 0.0672 ± 0.0047 µg/mL
half-life [1, 7]: 3.2 ± 0.42 h
Cmax [1, 8]: 0.535 ± 0.149 µg/mL
half-life [1, 8]: 2.2 ± 0.9 h
Cmax [1, 9]: 0.0455 ± 0.0214 µg/mL
half-life [1, 9]: 1.5 ± 0.25 h
Cmax [1, 10]: 0.0158 µg/mL
half-life [1, 10]: 2.2 ± 0.7 h
Cmax [1, 11]: 0.0828 ± 0.0565 µg/mL
half-life [1, 11]: 2.8 ± 0.2 h
Cmax [1, 12]: 0.851 ± 0.116 µg/mL
half-life [1, 12]: 2.6 ± 0.2 h
AUC(0-t) ([1]; female, iv, 0.3 mg/kg, female dogs, intravenous X842 0.3 mg/kg, read-out: AUC(0-24h)): 0.106 ± 0.0139 µg·h/mL
AUC(0-t) ([1]; female, po, 0.3 mg/kg, female dogs, single oral X842 0.3 mg/kg, read-out: AUC(0-24h)): 0.0487 ± 0.0074 µg·h/mL
AUC(0-t) ([1]; female, po, 1.2 mg/kg, female dogs, repeat oral X842, Day 1, read-out: AUC(0-24h) Day 1): 0.412 ± 0.166 µg·h/mL
AUC(0-t) ([1]; female, po, 1.2 mg/kg, female dogs, repeat oral X842, Day 7, read-out: AUC(0-24h) Day 7): 0.508 ± 0.0418 µg·h/mL
AUC(0-t) ([1]; female, po, 1.2 mg/kg, female dogs, single oral X842 1.2 mg/kg, read-out: AUC(0-24h)): 0.412 µg·h/mL
AUC(0-t) ([1]; female, po, 4.8 mg/kg, female dogs, single oral X842 4.8 mg/kg, read-out: AUC(0-24h)): 2.92 µg·h/mL
AUC(0-t) ([1]; male, iv, 0.3 mg/kg, male dogs, intravenous X842 0.3 mg/kg, read-out: AUC(0-24h)): 0.17 ± 0.0262 µg·h/mL
AUC(0-t) ([1]; male, po, 0.3 mg/kg, male dogs, single oral X842 0.3 mg/kg, read-out: AUC(0-24h)): 0.0778 ± 0.0668 µg·h/mL
AUC(0-t) ([1]; male, po, 1.2 mg/kg, male dogs, repeat oral X842, Day 1, read-out: AUC(0-24h) Day 1): 0.436 ± 0.272 µg·h/mL
AUC(0-t) ([1]; male, po, 1.2 mg/kg, male dogs, repeat oral X842, Day 7, read-out: AUC(0-24h) Day 7): 0.439 ± 0.0816 µg·h/mL
AUC(0-t) ([1]; male, po, 1.2 mg/kg, male dogs, single oral X842 1.2 mg/kg, read-out: AUC(0-24h)): 0.436 µg·h/mL
AUC(0-t) ([1]; male, po, 4.8 mg/kg, male dogs, single oral X842 4.8 mg/kg, read-out: AUC(0-24h)): 4.85 µg·h/mL
Cmax [2, 13]: 0.0805 ± 0.0177 µg/mL
AUC(0-t) [2, 13]: 0.133 ± 0.0111 µg·h/mL
half-life [2, 13]: 2 ± 0.4 h
Cmax [2, 14]: 0.0135 ± 0.0058 µg/mL
AUC(0-t) [2, 14]: 0.0676 ± 0.0237 µg·h/mL
half-life [2, 14]: 3.7 ± 1.6 h
Cmax [2, 15]: 0.0725 ± 0.0056 µg/mL
AUC(0-t) [2, 15]: 0.382 ± 0.0449 µg·h/mL
half-life [2, 15]: 2.7 ± 0.4 h
Cmax [2, 16]: 0.336 ± 0.0694 µg/mL
AUC(0-t) [2, 16]: 3.02 µg·h/mL
half-life [2, 16]: 2.6 ± 0.1 h
Cmax [2, 17]: 0.115 ± 0.017 µg/mL
half-life ([2]; male, iv, 0.6 mg/kg, male rats, intravenous X842, plasma analyte as labelled (prodrug X842 / parent linaprazan)): 1.4 ± 0.1 h
AUC(0-t) [2, 17]: 0.114 ± 0.0071 µg·h/mL
Cmax [2, 18]: 0.0062 ± 0.0017 µg/mL
AUC(0-t) [2, 18]: 0.0221 ± 0.0099 µg·h/mL
half-life [2, 18]: 2.2 ± 1 h
Cmax [2, 19]: 0.032 ± 0.0097 µg/mL
AUC(0-t) [2, 19]: 0.135 ± 0.0433 µg·h/mL
half-life [2, 19]: 2.6 ± 0.5 h
Cmax [2, 20]: 0.128 ± 0.0175 µg/mL
AUC(0-t) [2, 20]: 0.576 ± 0.0461 µg·h/mL
half-life [2, 20]: 3.1 ± 0.3 h
SMILES: Cc1cccc(C)c1CNc1cc(C(=O)NCCO)cn2c(C)c(C)nc12 [linaprazan]

Reference: paper PMC12446003, “Pharmacological characterization of linaprazan glurate (X842), a novel potassium-competitive acid blocker, in vitro and in vivo” (Frontiers in Pharmacology, 2025)
